Experiments:
Experiment in all cases: Study of germicidal activity of agents in the presence of proteins
Assay type in all cases: cell-based
[1] = tested on: Staphylococcus aureus (NBRC12732); design: key to growth of the microorganism S.a: a case where growth of the microorganism on the surface of the medium was recognized is shown by +; a case where growth of the microorganism on the surface of the medium was not recognized is shown by −; settings: for growth of the microorganism S.a: agent 50 μg/mL
Protocol: (§1) Didecyldimethylammonium adipate (DDAA), N-bis(3-aminopropyl)dodecylamine (TAA) and benzalkonium chloride were respectively prepared such that a concentration thereof is 1 w/w %.
(§2) GOT solution: GOT Substrate-Enzyme solution and GOT•L2α-KG solution which were components of L type Wako GOT•J2 kit (produced by Wako Pure Chemical Industries, Ltd.) were prepared with distilled water so as to become a 0.1 w/w % aqueous solution.
(§3) GPT solution: GOT Substrate-Enzyme solution and GOT•L2α-KG solution which were components of L type Wako GPT•J2 kit (produced by Wako Pure Chemical Industries, Ltd.) were prepared with distilled water so as to become a 0.1 w/w % aqueous solution.
(§4) Serum: Control Serum II Wako (produced by Wako Pure Chemical Industries, Ltd.) was prepared with distilled water so as to become a 0.1 w/w % aqueous solution.
(§5) i) The individual test microorganism, which was preliminarily cultured in bouillon medium in advance until 1×10^8 microorganisms/mL, were diluted with sterilized physiological saline for 100 times (to 1×10^6 microorganisms/mL) to obtain a solution of test microorganisms. ii) Into a 20 mL test tube made of glass which was preliminarily sterilized by dry-heat sterilization, the agent aqueous solution, the reagent solution and the solution of test microorganisms as prepared in the above described i) were added such that a final concentration of the agent become 50 μg/mL, a final concentration of the reagent become 100 μg/mL, and the number of test microorganisms become 1×10^5 microorganisms/mL, respectively, when a total volume thereof is prepared to be 10 mL. And then, the tube was sufficiently stirred. iii) After a lapse of predetermined times (5 min, 10 min, and 15 min), the solution as obtained in the above described ii) was smeared with a platinum loop on the surface of the nutrient agar plate medium preliminarily having been prepared, and the medium was cultured at 35° C.±2° C. for 24 hours. iv) After the cultivation, confirming the presence or not of the growth of the microorganisms on the surface of the medium was conducted. (3) Result
(§6) In Table 3, a case where growth of the microorganism on the surface of the medium was recognized is shown by +, and a case where growth of the microorganism on the surface of the medium was not recognized is shown by −, respectively.

[2] = tested on: Pseudonas aeruginosa (NBRC12689); design: key to growth of the microorganism P.a: a case where growth of the microorganism on the surface of the medium was recognized is shown by +; a case where growth of the microorganism on the surface of the medium was not recognized is shown by −; settings: for growth of the microorganism P.a: agent 50 μg/mL
Protocol: as §1, §2, §3, §4, §5, §6

[3] = tested on: Escherichia coli (NBRC3972); design: key: a case where growth of the microorganism on the surface of the medium was recognized is shown by +; a case where growth of the microorganism on the surface of the medium was not recognized is shown by −; settings: agent 50 μg/mL
Protocol: as §1, §2, §3, §4, §5, §6

[4] = tested on: Bacillus subtilis (NBRC13719); design: key: a case where growth of the microorganism on the surface of the medium was recognized is shown by +; a case where growth of the microorganism on the surface of the medium was not recognized is shown by −; settings: agent 50 μg/mL
Protocol: as §1, §2, §3, §4, §5, §6

[5] = data are not shown, effect does not change in the presence of protein

## benzalkonium chloride [BC, reference compound]
[1]; GOT, 5 min
  growth of the microorganism S.a: −
[1]; GOT, 10 min
  growth of the microorganism S.a: −
[1]; GOT, 15 min
  growth of the microorganism S.a: −
[1]; GPT, 5 min
  growth of the microorganism S.a: −
[1]; GPT, 10 min
  growth of the microorganism S.a: −
[1]; GPT, 15 min
  growth of the microorganism S.a: −
[1]; Serum, 5 min
  growth of the microorganism S.a: +
[1]; Serum, 10 min
  growth of the microorganism S.a: +
[1]; Serum, 15 min
  growth of the microorganism S.a: +
[2]; GOT, 5 min
  growth of the microorganism P.a: +
[2]; GOT, 10 min
  growth of the microorganism P.a: +
[2]; GOT, 15 min
  growth of the microorganism P.a: +
[2]; GPT, 5 min
  growth of the microorganism P.a: +
[2]; GPT, 10 min
  growth of the microorganism P.a: +
[2]; GPT, 15 min
  growth of the microorganism P.a: +
[2]; Serum, 5 min
  growth of the microorganism P.a: +
[2]; Serum, 10 min
  growth of the microorganism P.a: +
[2]; Serum, 15 min
  growth of the microorganism P.a: +
[3]; GOT, 5 min
  growth of the microorganism E.c: +
[3]; GOT, 10 min
  growth of the microorganism E.c: +
[3]; GOT, 15 min
  growth of the microorganism E.c: +
[3]; GPT, 5 min
  growth of the microorganism E.c: +
[3]; GPT, 10 min
  growth of the microorganism E.c: +
[3]; GPT, 15 min
  growth of the microorganism E.c: +
[3]; Serum, 5 min
  growth of the microorganism E.c: +
[3]; Serum, 10 min
  growth of the microorganism E.c: +
[3]; Serum, 15 min
  growth of the microorganism E.c: +
[4]; GOT, 5 min
  growth of the microorganism B.s: +
[4]; GOT, 10 min
  growth of the microorganism B.s: +
[4]; GOT, 15 min
  growth of the microorganism B.s: +
[4]; GPT, 5 min
  growth of the microorganism B.s: +
[4]; GPT, 10 min
  growth of the microorganism B.s: +
[4]; GPT, 15 min
  growth of the microorganism B.s: +
[4]; Serum, 5 min
  growth of the microorganism B.s: +
[4]; Serum, 10 min
  growth of the microorganism B.s: +
[4]; Serum, 15 min
  growth of the microorganism B.s: +

## Didecyldimethylammonium adipate [DDAA]
[1]; GOT, 5 min
  growth of the microorganism S.a: −
[1]; GOT, 10 min
  growth of the microorganism S.a: −
[1]; GOT, 15 min
  growth of the microorganism S.a: −
[1]; GPT, 5 min
  growth of the microorganism S.a: −
[1]; GPT, 10 min
  growth of the microorganism S.a: −
[1]; GPT, 15 min
  growth of the microorganism S.a: −
[1]; Serum, 5 min
  growth of the microorganism S.a: −
[1]; Serum, 10 min
  growth of the microorganism S.a: −
[1]; Serum, 15 min
  growth of the microorganism S.a: −
[2]; GOT, 5 min
  growth of the microorganism P.a: −
[2]; GOT, 10 min
  growth of the microorganism P.a: −
[2]; GOT, 15 min
  growth of the microorganism P.a: −
[2]; GPT, 5 min
  growth of the microorganism P.a: −
[2]; GPT, 10 min
  growth of the microorganism P.a: −
[2]; GPT, 15 min
  growth of the microorganism P.a: −
[2]; Serum, 5 min
  growth of the microorganism P.a: −
[2]; Serum, 10 min
  growth of the microorganism P.a: −
[2]; Serum, 15 min
  growth of the microorganism P.a: −
[3]; GOT, 5 min
  growth of the microorganism E.c: +
[3]; GOT, 10 min
  growth of the microorganism E.c: +
[3]; GOT, 15 min
  growth of the microorganism E.c: +
[3]; GPT, 5 min
  growth of the microorganism E.c: +
[3]; GPT, 10 min
  growth of the microorganism E.c: +
[3]; GPT, 15 min
  growth of the microorganism E.c: +
[3]; Serum, 5 min
  growth of the microorganism E.c: +
[3]; Serum, 10 min
  growth of the microorganism E.c: +
[3]; Serum, 15 min
  growth of the microorganism E.c: +
[4]; GOT, 5 min
  growth of the microorganism B.s: +
[4]; GOT, 10 min
  growth of the microorganism B.s: +
[4]; GOT, 15 min
  growth of the microorganism B.s: +
[4]; GPT, 5 min
  growth of the microorganism B.s: +
[4]; GPT, 10 min
  growth of the microorganism B.s: +
[4]; GPT, 15 min
  growth of the microorganism B.s: +
[4]; Serum, 5 min
  growth of the microorganism B.s: +
[4]; Serum, 10 min
  growth of the microorganism B.s: +
[4]; Serum, 15 min
  growth of the microorganism B.s: +

## CCCCCCCCCCCCN(CCCN)CCCN [TAA, N-bis(3-aminopropyl)dodecylamine]
[1]; GOT, 5 min
  growth of the microorganism S.a: −
[1]; GOT, 10 min
  growth of the microorganism S.a: −
[1]; GOT, 15 min
  growth of the microorganism S.a: −
[1]; GPT, 5 min
  growth of the microorganism S.a: −
[1]; GPT, 10 min
  growth of the microorganism S.a: −
[1]; GPT, 15 min
  growth of the microorganism S.a: −
[1]; Serum, 5 min
  growth of the microorganism S.a: −
[1]; Serum, 10 min
  growth of the microorganism S.a: −
[1]; Serum, 15 min
  growth of the microorganism S.a: −
[1]; [5]
  germicidal activity to Staphylococcus aureus: high germicidal activity
[2]; GOT, 5 min
  growth of the microorganism P.a: −
[2]; GOT, 10 min
  growth of the microorganism P.a: −
[2]; GOT, 15 min
  growth of the microorganism P.a: −
[2]; GPT, 5 min
  growth of the microorganism P.a: −
[2]; GPT, 10 min
  growth of the microorganism P.a: −
[2]; GPT, 15 min
  growth of the microorganism P.a: −
[2]; Serum, 5 min
  growth of the microorganism P.a: −
[2]; Serum, 10 min
  growth of the microorganism P.a: −
[2]; Serum, 15 min
  growth of the microorganism P.a: −
[2]; [5]
  germicidal activity to Pseudonas aeruginous: high germicidal activity
[3]; GOT, 5 min
  growth of the microorganism E.c: +
[3]; GOT, 10 min
  growth of the microorganism E.c: +
[3]; GOT, 15 min
  growth of the microorganism E.c: +
[3]; GPT, 5 min
  growth of the microorganism E.c: +
[3]; GPT, 10 min
  growth of the microorganism E.c: +
[3]; GPT, 15 min
  growth of the microorganism E.c: +
[3]; Serum, 5 min
  growth of the microorganism E.c: +
[3]; Serum, 10 min
  growth of the microorganism E.c: +
[3]; Serum, 15 min
  growth of the microorganism E.c: +
[4]; GOT, 5 min
  growth of the microorganism B.s: +
[4]; GOT, 10 min
  growth of the microorganism B.s: +
[4]; GOT, 15 min
  growth of the microorganism B.s: +
[4]; GPT, 5 min
  growth of the microorganism B.s: +
[4]; GPT, 10 min
  growth of the microorganism B.s: +
[4]; GPT, 15 min
  growth of the microorganism B.s: +
[4]; Serum, 5 min
  growth of the microorganism B.s: +
[4]; Serum, 10 min
  growth of the microorganism B.s: +
[4]; Serum, 15 min
  growth of the microorganism B.s: +

Source: patent US7727949B2, “Cleaning agent for thermostatic chambers” (Wako Pure Chemical Industries, Ltd., priority 2005, dated 2010)
